From publication PMC12126180 (Journal of chemical information and modeling, 2021)

Legend:
[1] = test system: SARS-CoV-2 WA1 strain; type: cell-based; conditions: Vero E6 cells
[2] = test system: COVID-19; conditions: 1063 patients, cited from earlier work

For CC(C)(O)c1ccccc1CC[C@@H](SCC1(CC(=O)O)CC1)c1cccc(/C=C/c2ccc3ccc(Cl)cc3n2)c1 [Montelukast], which “activity against SARS-CoV-2 replication in words” value [1] is on record?
The value was “weakly active”.

Which mortality rate ([2]; placebo 11.9%) does the source give for CCC(CC)COC(=O)[C@H](C)N[P@](=O)(OC[C@H]1O[C@@](C#N)(c2ccc3c(N)ncnn23)[C@H](O)[C@@H]1O)Oc1ccccc1 [Remdesivir] here?
Its mortality rate is 7.1%.

What about the “recovery time shortened with respect to the placebo” value [2] of the same compound?
Its value is “four”.
